In one series the test system is rKSHV.219-GFP/RFP. The series is described as follows: KSHV-GFP/RFP reporter assay in iSLK.219 cells. It is filed as cell-based, Kaposi’s sarcoma-associated herpesvirus. The source says: The virus recombinants VZV Oka-GFP and rKSHV.219-GFP/RFP were used for the infection of HFFs (virus stock VZV Oka-GFP applied as a cell-bound inoculum as described before) or were continuously passaged in iSLK.219 carrier cells, respectively (Figure 1). The conditions of the GFP/RFP-based assays were adapted to both the 96 well (Figure 1A,B) and 12 well formats, and details including the assessment of antiviral reference drugs are given (Figure 1C,D).
(§1) The virus recombinants VZV Oka-GFP and rKSHV.219-GFP/RFP were used for the infection of HFFs (VZV) or were continuously passaged in iSLK.219 carrier cells (KSHV), respectively, and cell viability was determined by NRA performed with uninfected HFFs or uninduced iSLK.219 cells, respectively. (A,B) Schematic depiction of the assay systems performed in a 96 well plate format. […] For the VZV-GFP system, virus stock VZV Oka-GFP was applied as a cell-bound infectious inoculum. After a 90 min period of inoculum adsorption to the cell surfaces, antiviral compounds were added to the culture media at serial dilutions (DMSO served as a solvent control for drug treatment of infected cells, while mock-infected cells served as a negative control). For the KSHV-GFP/RFP system, iSLK.219 cell lytic replication of KSHV (RFP reporter signal) was induced by the addition of 0.05 or 0.5 µg/mL doxycycline (dox) to the culture media. Cultivated dox-induced iSLK.219 cells were treated with antiviral compounds added at serial dilutions (DMSO served as a positive infection solvent control, while dox-untreated mock cells served as a negative control). HFFs or iSLK.219 cells were harvested at 4 d p.i. or 1 d after treatment, respectively, fixed by a 10 min incubation with 10% formalin, washed with PBS, and used for quantitation of the GFP or RFP reporter signal by PicoMD counting (ImageXpress® Pico device, Molecular Devices LLC, San Jose, CA, USA), with data evaluation using CellReporterXpress® software (version 2.9.3.1183, Molecular Devices LLC) as described earlier in [63]. (C) The antiviral activity of the reference drugs was determined with the VZV-GFP system in the 96 well format. EC50 values refer to measurements in quadruplicate, and the mean values ± SD of two experimental replicates are given. (D) The antiviral activity of the reference drugs was determined with the KSHV-GFP/RFP system in the 96 well format. EC50 values refer to measurements in triplicate, and the mean values ± SD are given for each of the two depicted experimental replicates.
On the technique in general: A reporter such as luciferase makes a cellular process visible.

Series [1] is described as follows: Neutral Red uptake assay (NRA), iSLK.219 cells. It is filed as cell-based. The note with it: human, read-out: CC50 (KSHV-GFP/RFP system). The method, then:
as §1

A further series has as its system HCMV UL97-H469V. Further details: method as in PMID 31940472; key: R-high, high-level drug resistance; R-int, intermediate-level drug resistance; R-low, low-level drug resistance; S, drug sensitivity. The note with it: cited from earlier work.

Where two headings read alike, the source gives them in different places.

On to `Nc1nc(O)c2ncn(COC(CO)CO)c2n1` [GCV, ganciclovir], for which the EC50 with rKSHV.219-GFP/RFP (Human gammaherpesvirus 8, read-out: KSHV EC50, iSLK.219, 96 well, induced with 0.05 μg/mL dox) was 200 ± 100 nM; in the series on rKSHV.219-GFP/RFP (Human gammaherpesvirus 8, read-out: KSHV EC50, iSLK.219, 96 well, induced with 0.5 μg/mL dox) it was 200 nM. Also, the CC50 in series [1] (marked 0.05 μg/mL dox) and in series [1] (marked 0.5 μg/mL dox) was more than 100000 nM each time.
Turning to `Nc1ccn(C[C@@H](CO)OCP(=O)(O)O)c(=O)n1` [CDV, cidofovir], the “Reported phenotype UL97-H469V” value in the series on HCMV UL97-H469V was “nd | nd | S”.

Source of the values: article PMC10892818, “An Antiherpesviral Host-Directed Strategy Based on CDK7 Covalently Binding Drugs: Target-Selective, Picomolar-Dose, Cross-Virus Reactivity” (Pharmaceutics, 2024).
